Experimental data reported in patent US20260001914A1, “MACROCYCLIC PEPTIDES TARGETING KRAS” (Merck Sharp & Dohme LLC, priority 2022, published 2026).
pEC50: −log10 of the molar value. *1 amine or outer side, *2 acyl side, *3 side chain or, on linkers, in order; H or OH if unused. Where a SMILES comes first, the peptide text is derived from it. Bridges are numbered along the chain shown (N, C = ends). [ ]: non-standard residue; d: D form. Phe(4-guanidino) = N=C(N)Nc1ccc(C[C@H](N)C(=O)O)cc1; Ala(pyrimidin-5-yl) = N[C@@H](Cc1cncnc1)C(=O)O; NMe3Pal(5-F) = CN[C@@H](Cc1cncc(F)c1)C(=O)O; NMePhe(3-Me) = CN[C@@H](Cc1cccc(C)c1)C(=O)O; X25 = O=C([C@H](Cc1ccc(F)nc1)N[*:1])[*:2]; X24 = O=C([C@H](Cc1ccncc1Cl)N[*:1])[*:2]; X80 = Nc1nccn1CCC[C@H](N[*:1])C(=O)[*:2]; X11 = CC(C)(F)CC[C@H](N[*:1])C(=O)[*:2]; X30 = O=C([C@H](Cc1ncccc1F)N[*:1])[*:2]; NMeAha = CN[C@@H](CCN=[N+]=[N-])C(=O)O; X32 = CS(=O)(=O)CCCN(CC(=O)[*:2])[*:1]; 1Nal = N[C@@H](Cc1cccc2ccccc12)C(=O)O; Phe(2-F) = N[C@@H](Cc1ccccc1F)C(=O)O; NMe3Pal = CN[C@@H](Cc1cccnc1)C(=O)O; X1 = O=C(C12CC(CN[*:1])(C1)C2)[*:2]; Aha = [N-]=[N+]=NCC[C@H](N)C(=O)O; Ala(cPr) = N[C@@H](CC1CC1)C(=O)O; NMeF = CN[C@@H](Cc1ccccc1)C(=O)O; PhLac = O=C(O)[C@@H](O)Cc1ccccc1; 3Pal = N[C@@H](Cc1cccnc1)C(=O)O; d3Pal = N[C@H](Cc1cccnc1)C(=O)O; Ahp(2) = CCCCC[C@H](N)C(=O)O; Cba = N[C@@H](CC1CCC1)C(=O)O; hLeu = CC(C)CC[C@H](N)C(=O)O; NMeS = CN[C@@H](CO)C(=O)O; αMeC = C[C@](N)(CS)C(=O)O; NMeA = CN[C@@H](C)C(=O)O; Nle = CCCC[C@H](N)C(=O)O

Target: KRAS-G12D protein (Homo sapiens, UniProt P01116, G12D)
Sequence (P01116 1-188 isoform P01116-2 G12D): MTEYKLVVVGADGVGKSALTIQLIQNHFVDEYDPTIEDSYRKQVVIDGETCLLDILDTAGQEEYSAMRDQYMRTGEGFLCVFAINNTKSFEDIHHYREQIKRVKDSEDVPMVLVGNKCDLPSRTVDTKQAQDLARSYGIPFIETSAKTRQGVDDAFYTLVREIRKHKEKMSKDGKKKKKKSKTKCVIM
Assay: SOS-mediated nucleotide exchange assay (BODIPY-GDP / Tb-streptavidin TR-FRET)
Type: biochemical

Structure (SMILES) | pEC50
CCCC[C@@H]1NC(=O)[C@H](Cc2cncnc2)NC(=O)[C@H](CO)N(C)C(=O)[C@H](Cc2ccccc2)OC(=O)C23CC(CNC(=O)[C@H](Cc4cccnc4)N(C)C(=O)[C@H](CCCC)NC(=O)[C@H](Cc4ccccc4F)NC1=O)(C2)C3 [compound 119, cyclo(FLac-NMeS-PyrimAla-Nle-Phe2F-Nle-NMe3Pal-amBCP)] (cyclo([NMe3Pal][X1][PhLac][NMeS][Ala(pyrimidin-5-yl)][Nle][Phe(2-F)][Nle])) | 6.43
CCCC[C@@H]1NC(=O)[C@H](Cc2ccccc2F)NC(=O)[C@H](CC2CCC2)NC(=O)[C@@H](Cc2cccnc2)NC(=O)[C@H](CCCn2ccnc2N)NC(=O)[C@H](Cc2ccccc2)NC(=O)C23CC(CNC(=O)[C@H](Cc4cccnc4)N(C)C1=O)(C2)C3 [compound 110, cyclo(F-NH2IMNva-d3Pal-cBuA-Phe2F-Nle-NMe3Pal-amBCP)] (cyclo(F[X80][d3Pal][Cba][Phe(2-F)][Nle][NMe3Pal][X1])) | 8.94
CCCC[C@@H]1NC(=O)[C@H](Cc2ccc(F)nc2)NC(=O)[C@H](C)N(C)C(=O)[C@H](Cc2ccccc2)OC(=O)C23CC(CNC(=O)[C@H](Cc4cccnc4)N(C)C(=O)[C@H](CCCC)NC(=O)[C@H](Cc4ccccc4F)NC1=O)(C2)C3 [compound 235, cyclo(FLac-NMeA-4F3Pal-Nle-Phe2F-Nle-NMe3Pal-amBCP)] (cyclo([NMe3Pal][X1][PhLac][NMeA][X25][Nle][Phe(2-F)][Nle])) | 7.73
CCCC[C@@H]1NC(=O)[C@H](Cc2cncnc2)NC(=O)[C@H](C)N(C)C(=O)[C@H](Cc2ccccc2)OC(=O)C23CC(CNC(=O)[C@H](Cc4ccccc4)N(C)C(=O)[C@H](CCCC)NC(=O)[C@H](Cc4ncccc4F)NC1=O)(C2)C3 [compound 229, cyclo(FLac-NMeA-PyrimAla-Nle-2Pal6F-Nle-NMeF-amBCP)] (cyclo([NMeA][Ala(pyrimidin-5-yl)][Nle][X30][Nle][NMeF][X1][PhLac])) | 6.25
C[C@H]1C(=O)N[C@@H](Cc2cncnc2)C(=O)N[C@@H](CC2CC2)C(=O)N[C@@H](Cc2ccccc2F)C(=O)N[C@@H](CC2CC2)C(=O)N(C)[C@@H](Cc2ccccc2)C(=O)NCC23CC(C2)(C3)C(=O)O[C@@H](Cc2ccccc2)C(=O)N1C [compound 267, cyclo(FLac-NMeA-PyrimAla-cPrA-Phe2F-cPrA-NMeF-amBCP)] (cyclo([Ala(cPr)][NMeF][X1][PhLac][NMeA][Ala(pyrimidin-5-yl)][Ala(cPr)][Phe(2-F)])) | 6.33
CCCC[C@@H]1NC(=O)[C@H](Cc2cccnc2)NC(=O)[C@H](CCN=[N+]=[N-])N(C)C(=O)[C@H](Cc2ccccc2)OC(=O)C23CC(CNC(=O)[C@H](Cc4cccnc4)N(C)C(=O)[C@H](CCCC)NC(=O)[C@H](Cc4ccccc4F)NC1=O)(C2)C3 [compound 249, cyclo(FLac-NMeDabN3-3Pal-Nle-Phe2F-Nle-NMe3Pal-amBCP)] (cyclo([3Pal][Nle][Phe(2-F)][Nle][NMe3Pal][X1][PhLac][NMeAha])) | 7.06
CCCC[C@@H]1NC(=O)[C@H](Cc2ccccc2F)NC(=O)[C@H](CC2CCC2)NC(=O)[C@@H](Cc2cccnc2)NC(=O)[C@H](CCCNC(=N)N)NC(=O)[C@H](Cc2ccccc2)NC(=O)C23CC(CNC(=O)[C@H](Cc4cccnc4)N(C)C1=O)(C2)C3 [compound 103, cyclo(F-R-d3Pal-cBuA-Phe2F-Nle-NMe3Pal-amBCP)] (cyclo(FR[d3Pal][Cba][Phe(2-F)][Nle][NMe3Pal][X1])) | 8.50
CCCCC[C@@H]1NC(=O)[C@H](Cc2ccc(O)cc2)NC(=O)[C@H](CC(C)C)NC(=O)[C@H](Cc2ccc(O)cc2)NC(=O)[C@H](CCCNC(=N)N)NC(=O)[C@H](Cc2ccccc2)NC(=O)CSC[C@H](C(N)=O)NC(=O)[C@H](Cc2ccccc2)N(C)C1=O [compound 3, cyclo(F-R-Y-L-Y-Ahp-NMeF-dCl-ClAc)] | 6.02
CCCCC[C@@H]1NC(=O)[C@H](Cc2ccc(OC)cc2)NC(=O)[C@H](CC2CCC2)NC(=O)[C@H](Cc2cnn(C)c2)NC(=O)[C@H](CCCNC(=N)N)NC(=O)[C@H](Cc2ccccc2)NC(=O)CSC[C@@](C)(C(N)=O)NC(=O)[C@H](Cc2ccccc2)N(C)C1=O [compound 372, cyclo(F-R-Ala4PyzlMe-cBuA-TyrOMe-Ahp-NMeF-aMeCl-ClAc)] | 7.99
CCCCC[C@@H]1NC(=O)[C@H](Cc2ccc(O)cc2)NC(=O)[C@H](CC(C)C)NC(=O)[C@H](Cc2ccc(O)cc2)NC(=O)[C@H](CCCNC(=N)N)NC(=O)[C@H](Cc2cccc3ccccc23)NC(=O)CSC[C@@H](C(N)=O)NC(=O)[C@H](Cc2ccccc2)N(C)C1=O [compound 7, cyclo(INal-R-Y-L-Y-Ahp-NMeF-Cl-ClAc)] ({CH2CO}-[1Nal]RYLY[Ahp(2)][NMeF]C-NH2; thioether N-8) | 5.79
CCCC[C@@H]1NC(=O)[C@H](Cc2ccc(O)cc2)NC(=O)[C@H](CC(C)C)NC(=O)[C@H](Cc2ccc(NC(=N)N)cc2)NC(=O)[C@H](CCCNC(=N)N)NC(=O)[C@H](Cc2ccccc2)NC(=O)CSC[C@@H](C(N)=O)NC(=O)[C@H](Cc2ccccc2)N(C)C1=O [compound 45, cyclo(F-R-Phe4Gn-L-Y-Nle-NMeF-Cl-ClAc)] ({CH2CO}-FR[Phe(4-guanidino)]LY[Nle][NMeF]C-NH2; thioether N-8) | 7.90
CCCC[C@@H]1NC(=O)[C@H](Cc2ccc(O)cc2)NC(=O)[C@H](CC(C)C)NC(=O)[C@H](Cc2ccc(O)cc2)NC(=O)[C@H](CCCNC(=N)N)NC(=O)[C@H](Cc2ccccc2)NC(=O)CSC[C@H](C(N)=O)NC(=O)[C@H](Cc2ccccc2)N(C)C1=O [compound 18, cyclo(F-R-Y-L-Y-Nle-NMeF-dCl-ClAc)] | 6.08
CC(C)CC[C@@H]1NC(=O)[C@H](Cc2ccccc2F)NC(=O)[C@H](CC2CC2)NC(=O)[C@H](Cc2cccnc2)NC(=O)[C@H](C)N(C)C(=O)[C@H](Cc2ccccc2)OC(=O)C23CC(CNC(=O)[C@H](Cc4cncc(F)c4)N(C)C1=O)(C2)C3 [compound 283, cyclo(FLac-NMeA-3Pal-cPrA-Phe2F-hL-NMe3Pal5F-amBCP)] (cyclo([3Pal][Ala(cPr)][Phe(2-F)][hLeu][NMe3Pal(5-F)][X1][PhLac][NMeA])) | 8.52
CCCC[C@@H]1NC(=O)[C@H](C(C)C)NC(=O)[C@H](CC2CCC2)NC(=O)[C@H](Cc2cccnc2)NC(=O)[C@H](CCN=[N+]=[N-])NC(=O)[C@H](Cc2ccccc2)NC(=O)C23CC(CNC(=O)[C@H](Cc4cccnc4)N(C)C1=O)(C2)C3 [compound 113, cyclo(F-DabN3~3Pal-cBuA-V-Nle-NMe3Pal-amBCP)] (cyclo(F[Aha][3Pal][Cba]V[Nle][NMe3Pal][X1])) | 5.18
C[C@H]1C(=O)N[C@@H](Cc2cncnc2)C(=O)N[C@@H](CC2CC2)C(=O)N[C@@H](Cc2ccccc2F)C(=O)N[C@@H](CCC(C)(C)F)C(=O)N(C)[C@@H](Cc2ccccc2)C(=O)NCC23CC(C2)(C3)C(=O)O[C@@H](Cc2ccccc2)C(=O)N1C [compound 277, cyclo(FLac-NMeA-PyrimAla-cPrA-Phe2F-hL3F-NMeF-amBCP)] (cyclo([Ala(cPr)][Phe(2-F)][X11][NMeF][X1][PhLac][NMeA][Ala(pyrimidin-5-yl)])) | 8.70
CCCC[C@@H]1NC(=O)[C@H](Cc2cncnc2)NC(=O)[C@H](C)N(C)C(=O)[C@H](Cc2ccccc2)OC(=O)C23CC(CNC(=O)[C@H](Cc4ccccc4)N(C)C(=O)[C@H](CCC(C)C)NC(=O)[C@H](Cc4ccccc4F)NC1=O)(C2)C3 [compound 132, cyclo(FLac-NMeA-PyrimAla-Nle-Phe2F-hL-NMeF-amBCP)] (cyclo([NMeA][Ala(pyrimidin-5-yl)][Nle][Phe(2-F)][hLeu][NMeF][X1][PhLac])) | 8.10
CCCC[C@@H]1NC(=O)[C@H](Cc2cncnc2)NC(=O)[C@H](C)N(C)C(=O)[C@H](Cc2ccccc2)OC(=O)C23CC(CNC(=O)[C@H](Cc4cccc(C)c4)N(C)C(=O)[C@H](CCCC)NC(=O)[C@H](Cc4ccccc4F)NC1=O)(C2)C3 [compound 172, cyclo(FLac-NMeA-PyrimAla-Nle-Phe2F-Nle-NMePhe3Me-amBCP)] (cyclo([NMeA][Ala(pyrimidin-5-yl)][Nle][Phe(2-F)][Nle][NMePhe(3-Me)][X1][PhLac])) | 8.22
CCCC[C@@H]1NC(=O)[C@H](Cc2cncnc2)NC(=O)[C@H](CCCn2ccnc2)N(C)C(=O)[C@H](Cc2ccccc2)OC(=O)C23CC(CNC(=O)[C@H](Cc4ccccc4)N(C)C(=O)[C@H](CCCC)NC(=O)[C@H](Cc4ccccc4F)NC1=O)(C2)C3 (single isomer, unassigned) [compound 222, cyclo(FLac-NMeNvalmid-PyrimAla-Nle-Phe2F-Nle-NMeF-amBCP)] | 6.31
COc1ccc(C[C@@H]2NC(=O)[C@H](CC3CCC3)NC(=O)[C@H](Cc3cccnc3)NC(=O)[C@H](CCCNC(=N)N)NC(=O)[C@H](Cc3ccccc3)NC(=O)CSC[C@](C)(C(N)=O)NC(=O)[C@@H]3CCCCCCC[C@H](NC2=O)C(=O)N3C)cc1 [SEQ ID NO: 192, cyclo(F-R-3Pal-cBuA-TyrOMe-AheNMeHag-aMeC-C1Ac)] | 6.90
CC(C)CC[C@@H]1NC(=O)[C@H](Cc2ccncc2Cl)NC(=O)[C@H](CC2CC2)NC(=O)[C@H](Cc2cncnc2)NC(=O)[C@H](C)N(C)C(=O)[C@H](Cc2ccccc2)OC(=O)C23CC(CNC(=O)[C@H](Cc4ccccc4)N(C)C1=O)(C2)C3 [compound 298, cyclo(FLac-NMeA-PyrimAla-cPrA-4Pal2Cl-hL-NMeF-amBCP)] (cyclo([Ala(cPr)][X24][hLeu][NMeF][X1][PhLac][NMeA][Ala(pyrimidin-5-yl)])) | 7.96
CCCC[C@@H]1NC(=O)[C@H](Cc2cccnc2)NC(=O)[C@H](C)N(C)C(=O)[C@H](Cc2ccccc2)NC(=O)CSC[C@@](C)(C(N)=O)NC(=O)[C@H](Cc2ccccc2)N(C)C(=O)[C@H](CCCC)NC(=O)[C@H](Cc2ccccc2F)NC1=O [compound 159, cyclo(F-NMeA-3Pal-Nle-Phe2F-Nle-NMeF-aMeCl-ClAc)] ({CH2CO}-F[NMeA][3Pal][Nle][Phe(2-F)][Nle][NMeF][αMeC]-NH2; thioether N-8) | 6.96
CCCCC[C@@H]1NC(=O)[C@H](Cc2ccc(OC)cc2)NC(=O)[C@H](CC2CCC2)NC(=O)[C@H](Cc2ccc(NC(=N)N)cc2)NC(=O)CN(CCCS(C)(=O)=O)C(=O)[C@H](Cc2ccccc2)NC(=O)CSC[C@@](C)(C(N)=O)NC(=O)[C@H](Cc2ccccc2)N(C)C1=O [compound 389, cyclo(F-Mspg-Phe4Gn-cBuA-TyrOMe-Ahp-NMeF-aMeCl-ClAc)] ({CH2CO}-F[X32][Phe(4-guanidino)][Cba]Y(Me)[Ahp(2)][NMeF][αMeC]-NH2; thioether N-8) | 6.36
